Laboratory results reported in patent EP0336326A2, “3-Aminodihydrothiophene-2-one peptide derivatives, processes for the preparation and therapeutic use” (POLI INDUSTRIA CHIMICA S.p.A., priority 1988, dated 1989).
Read-outs that look alike come from different tables or passages of the source.

What was measured:
[1] = tested on: 4% mucin suspension; assay: in vitro mucolytic activity test with a 4% mucin suspension; assay type: biochemical; conditions: equimolar concentrations (0.00625 M), after hydrolysis with rat serum; 6250 µM
[2] = mucolytic-expectorant activity: test of fluorescein elimination from the respiratory tract; assay type: in vivo; conditions: po; 0.5 mM/kg orally; in comparison with the controls; read-out: increase in the dye excretion
[3] = tested on: elastase-induced emphysema; assay: antiemphysema activity: pancreatic elastase induced emphysema, mean linear intercept (MLI) morphometry; assay type: in vivo; conditions: hamster; 0.25 mM/kg per os, during 4 weeks
Source text: The compounds of the present invention also display an interesting antiemphysema activity in the hamster (P.J. Stone et al., Amer. Rev. Respir. Dis., 124, 56, 1981). Emphysema induced by pancreatic elastase is morphometrically measured by evaluating, in µm, the mean linear intercept (MLI) (J. Kleinerman et al., Amer. Rev. Respir. Dis., 121, 381, 1980).

[4] = tested on: hystamine shock; assay: antibronchospastic activity: histamine shock test; assay type: in vivo; conditions: Cavia porcellus, ip; guinea pig; 0.25 mM/kg i.p.; compared with the basal values; read-out: increase resistance times against shock
Experimental: The antibronchospastic activity of the compounds of the present invention was evaluated by the hystamine shock test in guinea pig (P. C. Braga et al., Min. Pneumol., 23, 447, 1984).

[5] = tested on: Bordetella pertussis induced edema; assay: antiinflammatory activity: Bordetella pertussis induced edema test; assay type: in vivo; conditions: in Rattus norvegicus, po, 24 h, read-out: reduce the edema after 24 hours
Experimental: The antiinflammatory activity was evaluated by the test of Bordetella pertussis induced edema in the rat (F. Capasso, Agents and Actions, 11, 741, 1981).

[6] = tested on: CCl4intoxication; assay: hepatoprotective activity: CCl4 intoxication test; assay type: in vivo; conditions: ip, rat, 0.25 mM/kg i.p.
Experimental: The hepatoprotective activity was determined by the CCl4intoxication test in the rat (E. C. Ferreyra et al., Toxic. Appl. Pharmacol., 27, 558, 1974).

[7] = in comparison with intoxicated controls, read-out: reduce serum GOT
[8] = in comparison with the intoxicated controls, read-out: reduce serum GPT

With `CC(SC(=O)c1cccs1)C(=O)NCC(=O)NC1CCSC1=O` (racemic) [Compound III] the reductions in viscosity [1] was 13.1%, the change in vivo at 500 µM, 500 µmol/kg [2] was 71.3% and the “reduce the MLI increase in elastase-induced emphysema” value (“reduce the MLI increase” for short) [3] was 32.7%. For the same compound, the change in vivo at 250 µM, 250 µmol/kg [4] was 186%, the inhibition in vivo at 500 µM, 500 µmol/kg [5] was 41.8% and the inhibition in vivo at 250 µM, 250 µmol/kg [6, 7] was 54.7%. For the same compound, the inhibition in vivo at 250 µM, 250 µmol/kg [6, 8] was 54.1%.
With `CC(S)C(=O)NCC(=O)NC1CCSC1=O` (stereo not shown) [Compound II, 3-[(2-thiolpropionyl)glycyl]aminodihydrothiophene-2-one] the reductions in viscosity [1] was 13.4%, the change in vivo at 500 µM, 500 µmol/kg [2] was 72% and the “reduce the MLI increase” value [3] was 30.6%. It also gave a change in vivo at 250 µM, 250 µmol/kg [4] of 190%, an inhibition in vivo at 500 µM, 500 µmol/kg [5] of 42.1% and an inhibition in vivo at 250 µM, 250 µmol/kg [6, 7] of 55.8%. For the same compound, the inhibition in vivo at 250 µM, 250 µmol/kg [6, 8] was 52.3%.
In the case of `CC(=O)N[C@@H](CS)C(=O)N[C@H]1CCSC1=O` [Compound IV, L-3-[(N-acetylcysteinyl)]aminodihydrothiophene-2-one], the reductions in viscosity [1] is reported as 12.8%, the change in vivo at 500 µM, 500 µmol/kg [2] is reported as 68.5% and the “reduce the MLI increase” value [3] is reported as 31.8%. The change in vivo at 250 µM, 250 µmol/kg [4] was 180%, the inhibition in vivo at 500 µM, 500 µmol/kg [5] was 36.7% and the inhibition in vivo at 250 µM, 250 µmol/kg [6, 7] was 52.7%. The inhibition in vivo at 250 µM, 250 µmol/kg [6, 8] was 48.7%.
For `CC(=O)N[C@@H](CSC(=O)c1cccs1)C(=O)NC1CCSC1=O` (stereo partly drawn) [Compound V, 3-(N-acetyl-S-(2-thenoyl)-cysteinyl)aminodihydrothiophene-2-one], the reductions in viscosity [1] was 12.4%, the change in vivo at 500 µM, 500 µmol/kg [2] was 67.6% and the “reduce the MLI increase” value [3] was 32.7%. It also gave a change in vivo at 250 µM, 250 µmol/kg [4] of 181%, an inhibition in vivo at 500 µM, 500 µmol/kg [5] of 35.8% and an inhibition in vivo at 250 µM, 250 µmol/kg [6, 7] of 56.1%. For the same compound, the inhibition in vivo at 250 µM, 250 µmol/kg [6, 8] was 47.6%.
In the case of `CC(S)C(=O)NCC(=O)N1CSC[C@H]1C(=O)NC1CCSC1=O` (stereo partly drawn) [Compound VI, 3-{L-3-[(2-thiolpropionyl)glycyl]thiazolidin-4-carbonyl} aminodihydrothiophene-2-one], the reductions in viscosity [1] is reported as 13.4%, the change in vivo at 500 µM, 500 µmol/kg [2] is reported as 74.1% and the “reduce the MLI increase” value [3] is reported as 35.6%. The change in vivo at 250 µM, 250 µmol/kg [4] was 191%, the inhibition in vivo at 500 µM, 500 µmol/kg [5] was 38.7% and the inhibition in vivo at 250 µM, 250 µmol/kg [6, 7] was 58.5%. For the same compound, the inhibition in vivo at 250 µM, 250 µmol/kg [6, 8] was 52.8%.
With `CC(S)C(=O)NCC(=O)N1CSC[C@H]1C(=O)O` (stereo partly drawn) [Compound VII, L-3-[(2-thiolpropionyl)glycyl]thiazolidin-4-carboxylic acid] the reductions in viscosity [1] was 13.6%, the change in vivo at 500 µM, 500 µmol/kg [2] was 71.9% and the “reduce the MLI increase” value [3] was 34.9%. It also gave a change in vivo at 250 µM, 250 µmol/kg [4] of 188%, an inhibition in vivo at 500 µM, 500 µmol/kg [5] of 37.9% and an inhibition in vivo at 250 µM, 250 µmol/kg [6, 7] of 59.3%. For the same compound, the inhibition in vivo at 250 µM, 250 µmol/kg [6, 8] was 51.9%.
In the case of `CC(SC(=O)c1cccs1)C(=O)NCC(=O)N1CSC[C@H]1C(=O)NC1CCSC1=O` (stereo partly drawn) [Compound VIII, 3-{L-3-[(2-thenoylthiopropionyl)glycyl]thiazolidin-4-carbonyl}aminodihydrothiophene-2-one], the reductions in viscosity [1] is reported as 13.2%, the change in vivo at 500 µM, 500 µmol/kg [2] is reported as 70.8% and the “reduce the MLI increase” value [3] is reported as 35.4%. The change in vivo at 250 µM, 250 µmol/kg [4] was 188%, the inhibition in vivo at 500 µM, 500 µmol/kg [5] was 38.1% and the inhibition in vivo at 250 µM, 250 µmol/kg [6, 7] was 60.1%. For the same compound, the inhibition in vivo at 250 µM, 250 µmol/kg [6, 8] was 54.1%.
In the case of `CC(=O)N[C@@H](CS)C(=O)O` [N-acetyl-cysteine, reference compound], the reductions in viscosity [1] is reported as 10.8%, the change in vivo at 500 µM, 500 µmol/kg [2] is reported as 45.6% and the change in vivo at 250 µM, 250 µmol/kg [4] is reported as 168%. For the same compound, the inhibition in vivo at 500 µM, 500 µmol/kg [5] was 23.2%, the inhibition in vivo at 250 µM, 250 µmol/kg [6, 7] was 39.9% and the inhibition in vivo at 250 µM, 250 µmol/kg [6, 8] was 37.8%.
Compound `CC(S)C(=O)NCC(=O)O` (stereo not shown) [tiopronin, reference compound] has a reductions in viscosity [1] of 11.5%, a change in vivo at 500 µM, 500 µmol/kg [2] of 55.8% and a change in vivo at 250 µM, 250 µmol/kg [4] of 166%. For the same compound, the inhibition in vivo at 500 µM, 500 µmol/kg [5] was 28.6%, the inhibition in vivo at 250 µM, 250 µmol/kg [6, 7] was 42.2% and the inhibition in vivo at 250 µM, 250 µmol/kg [6, 8] was 39.8%.
